# Tests used:
# K-562 cells [1] = experiment: Western blot analysis of treated cells; type: cell-based, human
# MV4;11 [2] = experiment: Luminescent ATP-based cytotoxicity assay; type: cell-based, human; settings: MV4;11 (MLL/AF4)
# [3] = test system: BRD4 binding to the HOXA9 promoter; experiment: Chromatin immunoprecipitation; type: cell-based, human; settings: ChIP
# THP-1 [4] = experiment: Luminescent ATP-based cytotoxicity assay; type: cell-based, human; settings: THP-1 (MLL/AF9)
# BRD2(2) = BRD2(2) (Homo sapiens, UniProt P25440); experiment: ALPHA screen, acetylated histone 4 peptide displacement; type: binding; settings: read-out: potency (IC50); displacement of H4K5acK8acK12acK16ac peptide
# Chain of BRD2(2) (P25440 344-455 limits assumed): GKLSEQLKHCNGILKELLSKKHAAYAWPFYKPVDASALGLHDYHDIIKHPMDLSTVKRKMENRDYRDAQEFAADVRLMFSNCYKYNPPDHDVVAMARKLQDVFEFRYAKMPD
# [5] = test system: 40 human kinases and 14 human membrane receptors; experiment: Screening against kinases and membrane receptors
# BRD2(1) = BRD2(1) (Homo sapiens, UniProt P25440); experiment: Bio-Layer Interferometry; type: binding; settings: read-out: affinity
# Chain of BRD2(1) (P25440 71-194 limits assumed): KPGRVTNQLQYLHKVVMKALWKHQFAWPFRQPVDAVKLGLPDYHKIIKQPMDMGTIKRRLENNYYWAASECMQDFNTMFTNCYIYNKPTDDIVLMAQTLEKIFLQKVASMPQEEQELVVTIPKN
# MV4;11 [6] = experiment: Clonogenic growth in methylcellulose; type: cell-based, human
# K-562 [7] = experiment: Cell cycle analysis by flow cytometry; type: cell-based, human
# [8] = mouse; cited from earlier work
# K562 = experiment: Clonogenic growth in methylcellulose; type: cell-based, human
# RS4;11 = experiment: Luminescent ATP-based cytotoxicity assay; type: cell-based, human; settings: RS4;11 (MLL/AF4)
# NOMO-1 = experiment: Luminescent ATP-based cytotoxicity assay; type: cell-based, human; settings: NOMO-1 (MLL/AF9)
# SEMKH2 = experiment: Luminescent ATP-based cytotoxicity assay; type: cell-based, human; settings: SEMKH2 (MLL/AF9)
# [9] = test system: murine MLL-AF9 leukaemic blasts; experiment: Differentiation of leukaemic blasts; type: cell-based; settings: into cells with polymorphonuclear neutrophil like appearances
# KASUMI-1 = experiment: Luminescent ATP-based cytotoxicity assay; type: cell-based, human; settings: KASUMI-1 (AML1-ETO)
# REH = experiment: Luminescent ATP-based cytotoxicity assay; type: cell-based, human
# THP-1 [10] = experiment: Clonogenic growth in methylcellulose; type: cell-based, human
# SUPB-15 = experiment: Luminescent ATP-based cytotoxicity assay; type: cell-based, human
# K-562 [11] = experiment: Luminescent ATP-based cytotoxicity assay; type: cell-based, human
# [12] = test system: CD34 positive human haematopoietic stem cells; experiment: Clonogenic growth in methylcellulose; type: cell-based; settings: two different healthy donors
# [13] = test system: HOXA9 mRNA in MV4;11 cells; experiment: qRT-PCR of HOXA9 levels; type: cell-based, human
# 38 protein kinases = experiment: Screening against protein kinases; type: biochemical
# NALM-17 = experiment: Luminescent ATP-based cytotoxicity assay; type: cell-based, human
# MV4;11 [14] = experiment: Cell cycle analysis by flow cytometry; type: cell-based, human
# MV4;11 cells [15] = test system: MV4;11 cells
# CBP [16] = target: T1, CBP (Homo sapiens, UniProt Q92793); type: binding; settings: read-out: affinity; Bio-Layer Interferometry, estimated
# MV4;11 cells [17] = test system: MV4;11 cells; remark: listed apart in the source
# CBP [18] = target: T1, CBP; experiment: ALPHA screen; type: binding
# Aurora-A = settings: ref [34]–[37]; cited from earlier work
# Aurora-C = settings: ref [34]–[37]; cited from earlier work
# K-562 cells [19] = experiment: Cytotoxicity of BET inhibitor and VX-680 combinations; type: cell-based, human; settings: data not shown
# Aurora-B = settings: ref [34]–[37]; cited from earlier work
structure (smiles),measurement,setting,value
COc1ccccc1S(=O)(=O)Nc1ccc2c(c1)CN(C)C(=O)N2 [PFI-1],PARP1 and pro-caspase 7 cleavage,K-562 cells [1],neither PARP1 nor pro-caspase 7 cleavage was observed
same,c-Myc levels,K-562 cells [1],only a minor reduction
same,GI50,MV4;11 [2],1500 ± 1000 nM
same,BRD4 occupancy of the HOXA9 promoter region,[3],displace BRD4 from the HOXA9 promoter region
same,GI50,THP-1 [4],4000 ± 2000 nM
same,IC50,BRD2(2),98 nM
same,activity,[5],no significant activity
same,Kd,BRD2(1),111 nM
same,clonogenic growth,MV4;11 [6],strong ablation of clonogenic growth
same,cell cycle,K-562 [7],not affected
same,necessary effective dose in vivo,[8],cannot be obtained in vivo
same,cell numbers in clonogenic growth assay,K562,significantly reduce cell numbers
same,colony formation,K562,not affected
same,GI50,RS4;11,2000 ± 2000 nM
same,GI50,NOMO-1,3000 ± 3000 nM
same,GI50,SEMKH2,2000 ± 2000 nM
same,differentiation,[9],rapid differentiation
same,GI50,KASUMI-1,800 ± 1000 nM
same,GI50,REH,9000 ± 4000 nM
same,clonogenic growth,THP-1 [10],strong ablation of clonogenic growth
same,GI50,SUPB-15,11000 ± 4000 nM
same,activity (growth inhibition),K-562 [11],No significant activity
same,clonogenic growth,[12],significantly impaired
same,HOXA9 mRNA,[13]; after 4 h,up-regulated
same,HOXA9 mRNA,[13]; incubation times of 8 h and 24 h,strongly down-regulated
same,inhibitory activity,38 protein kinases,no significant inhibitory activity
same,GI50,NALM-17,8000 ± 4000 nM
same,cell cycle,MV4;11 [14],G1/S arrest
same,toxicity in combination with VX-680,MV4;11 cells [15],strong cancer cell toxicity
same,Kd,CBP [16],~11000 nM
same,c-Myc protein levels,MV4;11 cells [17],significantly lower
same,Aurora B protein levels,MV4;11 cells [17]; 8 h exposure,significant reduction
same,PARP1 and pro-caspase 7 cleavage,MV4;11 cells [17]; 24 h exposure,strong induction
same,protein levels and phosphorylation state of BAD,MV4;11 cells [17]; 24 h exposure,unaffected
same,IC50,CBP [18],too weak for determination of an accurate IC50 value
Cc1cc(Nc2cc(N3CCN(C)CC3)nc(Sc3ccc(NC(=O)C4CC4)cc3)n2)[nH]n1 [VX-680],potency,Aurora-A,[…]
same,potency,Aurora-C,4.6 nM
same,synergy with BET inhibitors,K-562 cells [19],No synergy
same,potency,Aurora-B,18 nM
